Experiments:
R0 plants = test: Comparison of doubling with and without colchicine: ploidy number of R0 plants; type: in vivo, corn
Description: Comparison of Doubling with and without Colchicine
This is about a 3-fold increase in the amount of doubling. The doubling from the Agrobacterium-mediated transformation process is about as efficient as a very low level of colchicine (50%), but not as effective as a more typical amount (83%).

plant tissues = test: Regenerability of plant tissues exposed to colchicine (own experiments); type: cell-based; conditions: levels of colchicine below levels used for chromosome doubling
Description: The ability to produce dihaploid transformed plants without the use of an added chromosome doubling agent is a huge advantage. Chromosome doubling agents tend to be highly toxic chemicals because they are antimicrotubule agents. Also, when using chromosome doubling agents to produce dihaploids from haploids some tetraploids are formed as well. Also, optimization of the chromosome doubling agent is detrimental to the production of transformants in the transformation process.

## COc1cc2c(c(OC)c1OC)-c1ccc(OC)c(=O)cc1[C@@H](NC(C)=O)CC2 [colchicine]
R0 plants; no transformation + 0.01% colchicine + plant regeneration (very low level of colchicine)
  % diploid: 50%
R0 plants; no transformation + 0.025% colchicine + plant regeneration (more typical amount used for doubling)
  % diploid: 83%
Plant tissues
  regenerability of plant tissues: greatly diminish the regenerability of plant tissues
